In PubChem BioAssay AID2060504 (Molecular Pharmacology Branch, DTP, NCI, 2025):

Tested on: 636577-100-R-J1-PDC complex spheroid viability
Assay: Anticancer human tumor 636577-100-R-J1-PDC patient-derived endometrial adenocarcinoma cell line growth inhibition [GQUAD]
Details: for IC50: curve of first compound; for viability, T/C: stronger effect = lower value
Method in brief: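 Viability of tumor cells grown as complex spheroids with endothelial and stromal cells, exposed to drug combinations. Top concentration at or near clinical Cmax (else 10 microM), diluted in half-log increments.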

[1] = second compound 0.0316 µM, first compound 0.0316 µM
[2] = second compound 0.0316 µM, first compound 0.1 µM
[3] = second compound 0.0316 µM, first compound 0.316 µM
[4] = second compound 0.0316 µM, first compound 1 µM
[5] = second compound 0.0316 µM, first compound 3.16 µM
[6] = second compound 0.0316 µM, first compound 10 µM
[7] = second compound 0.1 µM, first compound 0.0316 µM
[8] = second compound 0.1 µM, first compound 0.1 µM
[9] = second compound 0.1 µM, first compound 0.316 µM
[10] = second compound 0.1 µM, first compound 1 µM
[11] = second compound 0.1 µM, first compound 3.16 µM
[12] = second compound 0.1 µM, first compound 10 µM
[13] = second compound 0.316 µM, first compound 0.0316 µM
[14] = second compound 0.316 µM, first compound 0.1 µM
[15] = second compound 0.316 µM, first compound 0.316 µM
[16] = second compound 0.316 µM, first compound 1 µM
[17] = second compound 0.316 µM, first compound 3.16 µM
[18] = second compound 0.316 µM, first compound 10 µM
[19] = second compound 1 µM, first compound 0.0316 µM
[20] = second compound 1 µM, first compound 0.1 µM
[21] = second compound 1 µM, first compound 0.316 µM
[22] = second compound 1 µM, first compound 1 µM
[23] = second compound 1 µM, first compound 3.16 µM
[24] = second compound 1 µM, first compound 10 µM
[25] = second compound 3.16 µM, first compound 0.0316 µM
[26] = second compound 3.16 µM, first compound 0.1 µM
[27] = second compound 3.16 µM, first compound 0.316 µM
[28] = second compound 3.16 µM, first compound 1 µM
[29] = second compound 3.16 µM, first compound 3.16 µM
[30] = second compound 3.16 µM, first compound 10 µM
[31] = second compound 10 µM, first compound 0.0316 µM
[32] = second compound 10 µM, first compound 0.1 µM
[33] = second compound 10 µM, first compound 0.316 µM
[34] = second compound 10 µM, first compound 1 µM
[35] = second compound 10 µM, first compound 3.16 µM
[36] = second compound 10 µM, first compound 10 µM
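Further: viability read after seven days of drug exposure.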
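Wherever viability, T/C is given: luminescence signal used as a proxy for viable cells; 100% = DMSO vehicle control wells.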

For `COc1cc(C2c3cc4c(cc3C(OC3OC5COC(C)OC5C(O)C3O)C3COC(=O)C23)OCO4)cc(OC)c1O` (stereo not drawn) + Cc1cnc(CNC(=O)c2c(=O)c3ccc(N4CCCN(C)CC4)nc3n3c2sc2ccccc23)cn1, the IC50 (second compound 0.0316 µM) was less than 31.6 nM, the IC50 (second compound 0.1 µM) was less than 31.6 nM and the IC50 (second compound 0.316 µM) was less than 31.6 nM. It also gave an IC50 (second compound 1 µM) of less than 31.6 nM, an IC50 (second compound 3.16 µM) of less than 31.6 nM and an IC50 (second compound 10 µM) of less than 31.6 nM. The viability, T/C [1] was 28.9%, the viability, T/C [2] was 21.4% and the viability, T/C [3] was 18.5%. It also gave a viability, T/C [4] of 14.2%, a viability, T/C [5] of 13.7% and a viability, T/C [6] of 10.5%. It also gave a viability, T/C [7] of 25.8%, a viability, T/C [8] of 22.7% and a viability, T/C [9] of 18.6%. For the same compound, the viability, T/C [10] was 13.6%, the viability, T/C [11] was 16.5% and the viability, T/C [12] was 12.9%. It also gave a viability, T/C [13] of 22.2%, a viability, T/C [14] of 21.3% and a viability, T/C [15] of 17.8%. It also gave a viability, T/C [16] of 16.4%, a viability, T/C [17] of 17% and a viability, T/C [18] of 13.2%. For the same compound, the viability, T/C [19] was 21.5%, the viability, T/C [20] was 19.1% and the viability, T/C [21] was 17.6%. The viability, T/C [22] was 18.9%, the viability, T/C [23] was 17.8% and the viability, T/C [24] was 12.5%. The viability, T/C [25] was 19.3%, the viability, T/C [26] was 16.4% and the viability, T/C [27] was 19.6%. The viability, T/C [28] was 19.2%, the viability, T/C [29] was 18.2% and the viability, T/C [30] was 13.4%. The viability, T/C [31] was 17.8%, the viability, T/C [32] was 18.5% and the viability, T/C [33] was 19.4%. The viability, T/C [34] was 19.2%, the viability, T/C [35] was 17.7% and the viability, T/C [36] was 12.3%.
With `CCCS(=O)(=O)Nc1ccc(F)c(C(=O)c2c[nH]c3ncc(-c4ccc(Cl)cc4)cc23)c1F` + Cc1[nH]c2ccc(F)cc2c1-c1nc2c3cccnc3c3ncccc3c2[nH]1 the IC50 (second compound 0.0316 µM) was greater than 10000 nM, the IC50 (second compound 0.1 µM) was 5370 nM and the IC50 (second compound 0.316 µM) was 7080 nM. It also gave an IC50 (second compound 1 µM) of 7150 nM, an IC50 (second compound 3.16 µM) of less than 31.6 nM and an IC50 (second compound 10 µM) of less than 31.6 nM. For the same compound, the viability, T/C [1] was 98.2%, the viability, T/C [2] was 87.4% and the viability, T/C [3] was 116%. For the same compound, the viability, T/C [4] was 56.9%, the viability, T/C [5] was 73.5% and the viability, T/C [6] was 43.6%. It also gave a viability, T/C [7] of 101%, a viability, T/C [8] of 69.4% and a viability, T/C [9] of 104%. For the same compound, the viability, T/C [10] was 58.7%, the viability, T/C [11] was 66.3% and the viability, T/C [12] was 37.3%. The viability, T/C [13] was 94.2%, the viability, T/C [14] was 79.6% and the viability, T/C [15] was 81.2%. It also gave a viability, T/C [16] of 89.6%, a viability, T/C [17] of 80.4% and a viability, T/C [18] of 36.7%. The viability, T/C [19] was 87.4%, the viability, T/C [20] was 83.1% and the viability, T/C [21] was 63.9%. It also gave a viability, T/C [22] of 82.9%, a viability, T/C [23] of 69.4% and a viability, T/C [24] of 41.6%. It also gave a viability, T/C [25] of 28%, a viability, T/C [26] of 25.4% and a viability, T/C [27] of 31.2%. For the same compound, the viability, T/C [28] was 32.5%, the viability, T/C [29] was 31.9% and the viability, T/C [30] was 20.4%. It also gave a viability, T/C [31] of 40.2%, a viability, T/C [32] of 49.2% and a viability, T/C [33] of 48.7%. The viability, T/C [34] was 45.1%, the viability, T/C [35] was 43.5% and the viability, T/C [36] was 28.3%.
In the case of `CCCS(=O)(=O)Nc1ccc(F)c(C(=O)c2c[nH]c3ncc(-c4ccc(Cl)cc4)cc23)c1F` + Cc1cnc(CNC(=O)c2c(=O)c3ccc(N4CCCN(C)CC4)nc3n3c2sc2ccccc23)cn1, the IC50 (second compound 0.0316 µM) is reported as less than 31.6 nM, the IC50 (second compound 0.1 µM) is reported as less than 31.6 nM and the IC50 (second compound 0.316 µM) is reported as less than 31.6 nM. The IC50 (second compound 1 µM) was less than 31.6 nM, the IC50 (second compound 3.16 µM) was less than 31.6 nM and the IC50 (second compound 10 µM) was less than 31.6 nM. For the same compound, the viability, T/C [1] was 41.1%, the viability, T/C [2] was 40.1% and the viability, T/C [3] was 61.3%. The viability, T/C [4] was 33.9%, the viability, T/C [5] was 44.3% and the viability, T/C [6] was 24.2%. For the same compound, the viability, T/C [7] was 32%, the viability, T/C [8] was 31% and the viability, T/C [9] was 33.2%. For the same compound, the viability, T/C [10] was 31%, the viability, T/C [11] was 29.8% and the viability, T/C [12] was 21.4%. The viability, T/C [13] was 24.1%, the viability, T/C [14] was 25.8% and the viability, T/C [15] was 29.9%. The viability, T/C [16] was 27.4%, the viability, T/C [17] was 26.9% and the viability, T/C [18] was 15.7%. It also gave a viability, T/C [19] of 17.6%, a viability, T/C [20] of 24.2% and a viability, T/C [21] of 27.4%. The viability, T/C [22] was 26.8%, the viability, T/C [23] was 24.9% and the viability, T/C [24] was 14.7%. The viability, T/C [25] was 17.5%, the viability, T/C [26] was 21.9% and the viability, T/C [27] was 22%. For the same compound, the viability, T/C [28] was 25.1%, the viability, T/C [29] was 22.7% and the viability, T/C [30] was 15.4%. The viability, T/C [31] was 20.2%, the viability, T/C [32] was 22.1% and the viability, T/C [33] was 18.5%. The viability, T/C [34] was 21.1%, the viability, T/C [35] was 21.7% and the viability, T/C [36] was 6.34%.
Work on `COc1cccc2c1C(=O)c1c(O)c3c(c(O)c1C2=O)CC(O)(C(=O)CO)CC3OC1CC(N)C(O)C(C)O1` (stereo not drawn) + Cc1cnc(CNC(=O)c2c(=O)c3ccc(N4CCCN(C)CC4)nc3n3c2sc2ccccc23)cn1 yielded an IC50 (second compound 0.0316 µM) of less than 31.6 nM, an IC50 (second compound 0.1 µM) of less than 31.6 nM and an IC50 (second compound 0.316 µM) of less than 31.6 nM. The IC50 (second compound 1 µM) was less than 31.6 nM, the IC50 (second compound 3.16 µM) was less than 31.6 nM and the IC50 (second compound 10 µM) was less than 31.6 nM. It also gave a viability, T/C [1] of 22.1%, a viability, T/C [2] of 16.6% and a viability, T/C [3] of 15.6%. The viability, T/C [4] was 8.2%, the viability, T/C [5] was 0.23% and the viability, T/C [6] was 0.38%. It also gave a viability, T/C [7] of 19.2%, a viability, T/C [8] of 15.4% and a viability, T/C [9] of 13.4%. The viability, T/C [10] was 7.3%, the viability, T/C [11] was 0.09% and the viability, T/C [12] was 0.33%. It also gave a viability, T/C [13] of 19%, a viability, T/C [14] of 16.6% and a viability, T/C [15] of 13.1%. It also gave a viability, T/C [16] of 7.79%, a viability, T/C [17] of 0.05% and a viability, T/C [18] of 0.28%. For the same compound, the viability, T/C [19] was 18.3%, the viability, T/C [20] was 15.7% and the viability, T/C [21] was 12.5%. For the same compound, the viability, T/C [22] was 6.92%, the viability, T/C [23] was 0.05% and the viability, T/C [24] was 0.3%. For the same compound, the viability, T/C [25] was 13.3%, the viability, T/C [26] was 17.1% and the viability, T/C [27] was 14.2%. For the same compound, the viability, T/C [28] was 0.81%, the viability, T/C [29] was 0.07% and the viability, T/C [30] was 0.15%. It also gave a viability, T/C [31] of 17.1%, a viability, T/C [32] of 15.1% and a viability, T/C [33] of 15.2%. For the same compound, the viability, T/C [34] was 0.07%, the viability, T/C [35] was 0.11% and the viability, T/C [36] was 0.15%.
